Drawing on US11485725B2, “Derivatives of piperlongumine and uses thereof” (Auransa Inc., priority 2017, dated 2022), this text covers IC50 for 16 compounds.

Test [1] concerns HCT116 (colorectal cancer) cells. The experiment in a line: Resazurin-based cell viability assay using colorectal cancer cells. To be noted: Homo sapiens, HCT-116, 72 hr incubation. The method, then:
Determination of Potency of Compounds in Cell Viability Assay Using Colorectal Cancer Cells
The blue dye resazurin-based assay was performed to determine cell viability and used according to manufacture protocol (Sigma®). HCT116 (colorectal cancer) cells were seeded in the DMEM medium (10% FBS serum). Approximately 1,500 cells were plated per well in 96 well plates. Cells were allowed to grow at 37° C. for 24 hr in 5% CO2 environment in a humidified incubator. Serially diluted compounds (100 μL) were added to the culture plate after 24 hr. After addition of compounds, plates were incubated for 72 hr. Experiment was terminated at the designated incubation time by replacing the medium with 100 μL of 1 mM of resazurin (Sigma®) prepared in culture medium (DMEM) and were further incubated in culture conditions for 4-6 hours. Fluorescence was recorded using a multimodal plate reader (Biotek Synergy Neo®) at an excitation wavelength of 535 nm and emission wavelength of 590 nm to obtain relative fluorescence units. Data analysis was done by subtracting the background fluorescence (medium blank) value from each reading and then normalizing with the vehicle control (DMSO treated cells) to obtain percent survival/proliferation. IC50 was calculated from percent survival values using GraphPad Prism® (see Table 1).
(In general: Resazurin is reduced to fluorescent resorufin, in cell work by metabolically active cells.)

The next test relates to MOLP-8. The test can be described thus: In vitro cell viability assay (CellTiter-Glo, ATP levels), multiple myeloma cells. The test is classed as cell-based. To be noted: Homo sapiens, MOLP-8, 168 h, 7-day incubation, CellTiter-Glo, average values; read-out: MOLP-8 IC50. The method, then:
(§1) In Vitro Cell Viability Assay
(§2) The present disclosure provides a method for inhibiting cell viability, as measured by ATP levels. The method for inhibiting cell viability is drawn to contacting various cancer cells with the compounds described herein at various concentrations. The cancer cell lines were maintained in culture conditions at 37° C. in an atmosphere of 5% CO2 in air. The cells growing in an exponential growth phase were harvested and counted for plating. Compounds were incubated in two cancer cell types representing multiple myeloma (MOLP-8) and triple negative breast cancer (DU4475). Cells were plated at an optimized cell numbers per well in 96-well plates and allowed to attach to the plates overnight at approximately 80% confluency.
(§3) After addition of compounds, plates were incubated for 7-day. At the end of incubation period on day 8, media was removed and replaced with a solution of CellTiter-Glo™ reagent (Promega®) according to protocol. Luminescence was read using an EnVision® multi-label plate reader (Perkin-Elmer®), and signal intensity was calculated relative to positive and negative control wells. Cisplatin was included as the positive control. A dose-response calculation was performed in a non-linear regression fit and by using the Hill equation to calculate a concentration-response curve and 50% inhibitory concentration (IC50) values for each compound.
(§4) The average IC50 values of compounds 1-15 in multiple myeloma (MOLP-8) and triple negative breast cancer (DU4475) cells are shown in Table 1.
(In general: Cellular ATP, detected with luciferase, serves as a proxy for viable cell number.)

In a further test the test system is DU4475. The test can be described thus: In vitro cell viability assay (CellTiter-Glo, ATP levels), triple negative breast cancer cells. Format: cell-based. Conditions: Homo sapiens, DU-4475, 168 h, 7-day incubation, CellTiter-Glo, average values; read-out: DU4475 IC50. The method, then:
as §1, §2, §3, §4

Usually IC50 stands for the concentration that gives 50% inhibition. `CC1=CCCN(C(=O)/C=C/c2cnn(C)c2)C1=O` [Compound 93, (E)-3-methyl-1-(3-(1-methyl-1H-pyrazol-4-yl)acryloyl)-5,6-dihydropyridin-2(1H)-one]: in test [1], the IC50 came to 88300 nM.

Regarding `O=C1C=CCCN1C(=O)/C=C/c1ncc2ccccc2n1` [Compound 48, (E)-1-(3-(quinazolin-2-yl)acryloyl)-5,6-dihydropyridin-2(1H)-one], the IC50 in the test with MOLP-8 is 290 nM; with DU4475, 350 nM.

Consider `CS(=O)(=O)N1CCC(/C=C/C(=O)N2CCC=CC2=O)CC1` [Compound 47, 1-{(2E)-3-[1-(methylsulfonyl)piperidin-4-yl]prop-2-enoyl}-5,6-dihydropyridin-2(1H)-one], for which the IC50 in test [1] stood at 3140 nM.

For `COc1cc(/C=C/C(=O)N2C(=O)C=CCC2(C)C)cc(OC)c1OC` [Compound 94, (E)-6,6-dimethyl-1-(3-(3,4,5-trimethoxyphenyl)acryloyl)-5,6-dihydropyridin-2(1H)-one], in test [1], the IC50 was 3150 nM.

As to `CC1(/C=C/C(=O)N2CCC=CC2=O)CCN(C(=O)OC(C)(C)C)CC1` [Compound 64, tert-butyl (E)-4-methyl-4-(3-oxo-3-(6-oxo-3,6-dihydropyridin-1(2H)-yl)prop-1-en-1-yl)piperidine-1-carboxylate], the IC50 in test [1] was found to be 4320 nM.

In the case of `CN1CCC(/C=C/C(=O)N2CCC=CC2=O)CC1` [Compound 41, (E)-1-(3-(1-methylpiperidin-4-yl)acryloyl)-5,6-dihydropyridin-2(1H)-one], the IC50 in test [1] was 1240 nM.

Turning to `C/C(=C\c1ncccn1)C(=O)N1CCC=CC1=O` [Compound 42, (E)-1-(2-methyl-3-(pyrimidin-2-yl)acryloyl)-5,6-dihydropyridin-2(1H)-one], the IC50 in test [1] stood at 2200 nM.

`O=C1C=CCCN1C(=O)/C=C/C1CCN(c2ccc(F)cc2)CC1` [Compound 61, 1-{3-[1-(4-fluorophenyl)piperidin-4-yl]prop-2-enoyl}-5,6-dihydropyridin-2(1H)-one]: the values for the IC50 in the test with MOLP-8 and with DU4475 were 680 nM and 950 nM, respectively.

For `C/C(=C\c1ncccn1)C(=O)N1CCC=C(Cl)C1=O` [Compound 46, (E)-3-chloro-1-(2-methyl-3-(pyrimidin-2-yl)acryloyl)-5,6-dihydropyridin-2(1H)-one], the IC50 in test [1] turned out to be 970 nM.

`O=C1C=CCCN1C(=O)/C=C/c1cnc2c(n1)OCCO2` [Compound 65, (E)-1-(3-(2,3-dihydro-[1,4]dioxino[2,3-b]pyrazin-6-yl)acryloyl)-5,6-dihydropyridin-2(1H)-one]: the IC50 in test [1] amounted to 2250 nM.

Consider `O=C(c1ccccc1)N1CCC(/C=C/C(=O)N2CCC=CC2=O)CC1` [Compound 54, 1-[(2E)-3-(1-benzoylpiperidin-4-yl)prop-2-enoyl]-5,6-dihydropyridin-2(1H)-one], for which the IC50 in test [1] was found to be 1400 nM.

`O=C1C=CCCN1C(=O)/C=C/C1CCN(Cc2ccc(F)cc2)CC1` [Compound 60, 1-{3-[1-(4-fluorobenzyl)piperidin-4-yl]prop-2-enoyl}-5,6-dihydropyridin-2(1H)-one]: the values for the IC50 in the test with MOLP-8 and in the test on DU4475 were 340 nM and 590 nM, respectively.

For `O=C(c1ccc(F)cc1)N1CCC(/C=C/C(=O)N2CCC=CC2=O)CC1` [Compound 50, (E)-1-(3-(1-(4-fluorobenzoyl)piperidin-4-yl)acryloyl)-5,6-dihydropyridin-2(1H)-one], the figures for the IC50 in the test on MOLP-8 and with DU4475 were 410 nM and 500 nM, respectively.

As to `Cn1cc(/C=C/C(=O)N2CCC=CC2=O)c2ccccc21` [Compound 52, 1-[(2E)-3-(1-methyl-1H-indol-3-yl)prop-2-enoyl]-5,6-dihydropyridin-2(1H)-one], the values for the IC50 with MOLP-8 and in the test on DU4475 were 1000 nM and 1520 nM, respectively.

For the compound `O=C1C=CCCN1C(=O)/C=C/C1CCN(S(=O)(=O)c2ccc(F)cc2)CC1` [Compound 51, (E)-1-(3-(1-(4-fluorophenylsulfonyl)piperidin-4-yl)acryloyl)-5,6-dihydropyridin-2(1H)-one], the values for the IC50 with MOLP-8 and with DU4475 were 560 nM and 570 nM, respectively.

For the compound `O=C1C=C(Cl)CCN1C(=O)/C=C/c1ncccn1` [Compound 36, (E)-4-chloro-1-(3-(pyrimidin-2-yl)acryloyl)-5,6-dihydropyridin-2(1H)-one], the IC50 in test [1] is 2970 nM.
